Assay results reported in patent US7655832B2, “Rapid-throughput teleost regeneration assay” (The State of Oregon Acting by and Through the State Board …, priority 2006, dated 2010).

Legend:
[1] = test system: adult zebrafish caudal fin regeneration; assay: Adult zebrafish caudal fin regeneration study; type: in vivo
Text: The fish were transferred back to the tanks and were continuously exposed to vehicle or Beclomethasone until the end of the study. The exposure solutions were changed daily. The positive “hits” were of different chemical classes and using structure function analysis, a major cluster of compounds was identified as glucocorticoids (5 of the “hit” compounds). […] We selected glucocorticoids for further studies since this was the largest cluster of “hits”. […] This characteristic morphology occurs because the tissue lateral to the amputation plane continues to grow and partially collapses around the amputation plane. Since the adult fin regeneration model is more widely studied, it was important to determine if chemical “hits” identified in the larval screen would be predictive for the adult fin regeneration responses. Therefore, the regeneration response to glucocorticoids exposure on fin regeneration was also assessed in adult zebrafish.

[2] = test system: zebrafish larvae caudal fin regeneration; assay: Larval fin regeneration with exposure in distinct time windows post amputation; type: in vivo; settings: 1 μM
Procedure: Once candidate agents have been determined to affect regeneration, a number of studies may be done. In one example, the IC50 of the candidate agent is determined using methods known in the art. In another example, a secondary screen is performed to aid in identification of a target of the candidate agent. This may be accomplished in many ways. For example, after amputation, the fin undergoes several stages of regeneration. In a first stage, cells migrate into the epithelial wound cap. In a second stage, the blastema differentiates within the wound cap. In a final stage, cells proliferate, leading to outgrowth of the new fin. Thus, by adding the candidate agent to the amputated teleost for short durations of time at different, defined, times after amputation, it is possible to identify which regenerative stage or stages are sensitive to the candidate agent. Specifically, agents present for 0 to 4 hours post amputation (hpa) would preferentially target epithelial wound cap formation. Agents present between 4 and 12 hpa may specifically target blastema formation, and agents present between 12 and 24 hpa may preferentially target cellular differentiation. Finally, agents present between 24 hpa and 72 hpa would target the cellular proliferation stage.
Fertilized eggs were obtained from AB strain zebrafish (University of Oregon, Eugene, Oreg.) for all the experiments. […]

## CCC(=O)OCC(=O)[C@@]1(OC(=O)CC)[C@@H](C)C[C@H]2[C@@H]3CCC4=CC(=O)C=C[C@]4(C)[C@@]3(Cl)[C@@H](O)C[C@@]21C [Beclomethasone, Beclomethasone dipropionate]
[1]; 0.005 mg/L waterborne, one day pre-exposure then continuous exposure
  adult caudal fin regeneration: completely inhibited
[1]; at 5 dpa
  new tissue in the adult fin: essentially no new tissue
[2]; 0-4 hpa
  larval fin regeneration, exposure for four hours immediately following amputation: failed to regenerate
[2]; from 4 hpa continuously until 3 dpa
  larval fin regeneration, exposure beginning at 4 hpa: completely regenerated their fins
